Test results taken from patent publication US8618286B2, “Benzoxazines, benzothiazines, and related compounds having NOS inhibitory activity” (NeurAxon, Inc., priority 2008, dated 2013).
Structures can show the parent of a compound that is named as a salt.

Tests used:
Format in all cases: biochemical
[1] = biological target: Nitric oxide synthase (neuronal, human recombinant) nNOS (Homo sapiens (Human), UniProt P29475); assay: Human nNOS enzyme assay ([3H]-L-arginine to L-citrulline conversion); conditions: for Selectivity eNOS/nNOS: ratio of human eNOS IC50 to human nNOS IC50; for IC50: recombinant human nNOS
Experimental: (§1) nNOS (Human), eNOS (Human) and iNOS (Human) Enzyme Assay
(§2) Primary stock solutions of test compounds at a concentration of 6 mM were prepared from the 2 to 5 mg powder. The primary stock solutions of each test compound were prepared freshly in distilled water on the day of study to obtain a final concentration of 6 mM. For determination of IC50 values, 12 test compound concentrations were prepared as 3-fold serial dilutions. Concentration range of test compound utilized for nNOS were 0.001 to 300 μM and for eNOS were 0.003 to 1000 μM. The vehicle of the test compound or inhibitor was used as blank control. For non-specific activity, 100 μM L-NMMA was used. Runs using the IC50 concentration of L-NAME were done in parallel as controls.
(§3) All incubations are performed in duplicate
(§4) The reaction mixture was prepared on ice by adding the following components with a micropipette to a polypropylene microcentrifuge tube: • 10 μL of test compound, inhibitor or control (vehicle or L-NMMA) solution; • 25 μL of Reaction Buffer {25 mM Tris-HCl, 0.6 μM BH4, 0.2 μM FMN, 0.2 μM FAD}; • 5 μL of 10 mM NADPH solution {1 mM} (freshly prepared in 10 mM Tris-HCl (pH 7.4); • 5 μL of 6 mM CaCl2 {600 W}; • 5 μL of 1 mM Calmodulin {100 W}; and • 5 μL of 0.02 μg/μL nNOS or 0.12 μg/μL eNOS.
(§5) The above reaction mixture was pre-incubated at room temperature for 15 mins.
(§6) The reaction was started by the addition of the substrate (in 5 μL containing 1 μCi of [^3H]-L-Arginine+2.5 μM of unlabeled L-Arginine) to the reaction mixture. Total reaction volume is 60 μL.
(§7) The reaction was mixed using a vortex mixer and incubate the above reaction mixture at 37° C. in an incubator for 30 minutes.
(§8) To stop the reaction, 400 μL of ice-cold Stop Buffer was added at the end of the incubation period.
(§9) The reaction was then mixed using a vortex mixer, and the reaction samples were transferred to spin cups, which were centrifuged using a microcentrifuge, at 13,000 rpm for 30 sec. at room temperature.
(§10) The spin cups were removed from the holder, 450 μL of eluate (containing the unbound L-citrulline) were transferred to scintillation vials. 3 mL of scintillation fluid were added and the radioactivity was quantified in a liquid scintillation counter.
(§11) Data was analyzed using a Sigmoidal dose-response (variable slope) curve to determine the IC50 value of the test compound. Y=Bottom+(Top−Bottom)/(1+10^((Log IC50−X)*Hill Slope))

[2] = biological target: Recombinant human inducible NOS (iNOS) (Homo sapiens (Human), UniProt P35228); assay: Human iNOS enzyme assay (Protocol 1 or Protocol 2, radiometric)
Experimental: The human iNOS assay was carried by either one of the two protocols as described herein:
Recombinant human inducible NOS (iNOS) was produced in Baculovirus-infected Sf9 cells (ALEXIS). In a radiometric method, NO synthase activity was determined by measuring the conversion of [^3H]L-arginine to [^3H]L-citrulline. To measure iNOS, 10 μL of enzyme was added to 100 μL of 100 mM HEPES, pH=7.4, containing 1 mM CaCl2, 1 mM EDTA, 1 mM dithiothreitol, 1 μM FMN, 1 μM FAD, 10 μM tetrahydrobiopterin, 120 μM NADPH, and 100 nM CaM.
To measure enzyme inhibition, a 15 μL solution of a test substance was added to the enzyme assay solution, followed by a pre-incubation time of 15 min at RT. The reaction was initiated by addition of 20 μL L-arginine containing 0.25 μCi of [^3H] arginine/mL and 24 μM L-arginine. The total volume of the reaction mixture was 150 μL in every well. The reactions were carried out at 37° C. for 45 minutes, The reaction was stopped by adding 20 μL of ice-cold buffer containing 100 mM HEPES, 3 mM EGTA, 3 mM EDTA, pH=5.5. [^3H]L-citrulline was separated by DOWEX (ion-exchange resin DOWEX 50 W×8-400, SIGMA) and the DOWEX was removed by spinning at 12,000 g for 10 min in the centrifuge. An aliquot (70 μL) of the supernatant was added to 100 μL of scintillation fluid, and the samples were counted in a liquid scintillation counter (1450 Microbeta Jet, Wallac). Specific NOS activity was reported as the difference between the activity recovered from the test solution and that observed in a control sample containing 240 mM of the inhibitor L-NMMA. All assays were performed at least in duplicate. Standard deviations are 10% or less.
Primary stock solutions of each test compound were prepared in distilled water on the day of study to obtain a final concentration of 6 mM. For the determination of IC50 values, 11 test compound concentrations were prepared as 3-fold serial dilutions. Test compounds were tested in the iNOS assay at a concentration of 1000 μM to 0.0169 μM. The vehicle of the test compound or inhibitor, distilled water, was used as blank control. For non-specific activity, 100 μM L-NMMA was run in parallel as a control.
All incubations were performed in duplicate
The reaction mixture was prepared on ice by the addition of the following components to the appropriate well of a 1.0 mL 96-well polypropylene plate:
10 μL of test compound, reference inhibitor, or control (vehicle or L-NMMA) solution;
25 μL of Reaction Buffer (50 mM Tris-HCl, 6 μM BH4, 2 μM FMN, 2 μM FAD);
5 μL of 10 mM NADPH solution;
5 μL of 1 μM Calmodulin; and
The reaction mixture was pre-incubated at room temperature for 15 minutes. Following this pre-incubation, the reaction was initiated by the addition of 5 μL of the substrate L-arginine (1 μCi of [^3H]-L-Arginine+30 μM of unlabeled L-Arginine) to the reaction mixture. The total reaction volume was 60 μL. The assay plate containing the reaction mixtures was sealed and incubated at 37° C. for 30 minutes. At the end of this incubation period, 400 μL of ice-cold Stop Buffer (the EDTA in the Stop Buffer chelates all of the available calcium) was added to each well to stop the reaction. 100 μL of equilibrated resin pH 5.5 was added to each of the assay wells. The reaction samples were vortexed and transferred to spin cups, after-which they were centrifuged at 13,000 rpm for 30 sec. The spin cups were removed from the holder and […] (containing the unbound L-citrulline) were added to the appropriate wells of a 96-well liquid scintillation plate. 175 μL of scintillation fluid were also added to each well. The plate was sealed, and radioactivity was quantitated using a Microbeta liquid scintillation counter.
Data were analyzed using a Sigmoidal dose-response (variable slope) curve to determine the IC50 value of the test compound. Y=Bottom+(Top−Bottom)/(1+10^((Log IC50−X)*Hill Slope))

[3] = biological target: Nitric oxide synthase (endothelial, human recombinant) eNOS (Homo sapiens (Human), UniProt P29474); assay: Human eNOS enzyme assay ([3H]-L-arginine to L-citrulline conversion)
Experimental: as §1, §2, §3, §4, §5, §6, §7, §8, §9, §10, §11

## CN1CCCC1CCN1C(=O)COc2cc(NC(=N)c3cccs3)ccc21 (centres unmarked) [Compound 1]
[1]
  Selectivity eNOS/nNOS: 41.9

## CN1CCCC1CCN1CCOc2cc(NC(=N)c3cccs3)ccc21 (centres unmarked) [Compound 2]
[1]
  Selectivity eNOS/nNOS: 25.3

## N=C(Nc1ccc2c(c1)OCC(=O)N2CCN1CCCC1)c1cccs1 [Compound 3, N-(3-oxo-4-(2-(pyrrolidin-1-yl)ethyl)-3,4-dihydro-2H-benzo[b][1,4]oxazin-7-yl)thiophene-2-carboximidamide]
[2]
  IC50: 1.5 µM
[1]
  Selectivity eNOS/nNOS: 16.2
  IC50: 0.85 µM
[3]
  IC50: 13.8 µM

## N=C(Nc1ccc2c(c1)OCCN2CCN1CCCC1)c1cccs1 [Compound 4, N-(4-(2-(pyrrolidin-1-yl)ethyl)-3,4-dihydro-2H-benzo[b][1,4]oxazin-7-yl)thiophene-2-carboximidamide]
[2]
  IC50: 2.7 µM
[1]
  Selectivity eNOS/nNOS: 61.2
  IC50: 0.41 µM
[3]
  IC50: 25.1 µM

## CN(C)CCN1C(=O)COc2cc(NC(=N)c3cccs3)ccc21 [Compound 5, N-(4-(2-(Dimethylamino)ethyl)-3-oxo-3,4-dihydro-2H-benzo[b][1,4]oxazin-7-yl)thiophene-2-carboximidamide]
[2]
  IC50: > 100 µM
[1]
  Selectivity eNOS/nNOS: 25.5
  IC50: 1.84 µM
[3]
  IC50: 47 µM

## CN(C)CCN1CCOc2cc(NC(=N)c3cccs3)ccc21 [Compound 6, N-(4-(2-(dimethylamino)ethyl)-3,4-dihydro-2H-benzo[b][1,4]oxazin-7-yl)thiophene-2-carboximidamide]
[2]
  IC50: 10.9 µM
[1]
  Selectivity eNOS/nNOS: 208.5
  IC50: 0.2 µM
[3]
  IC50: 41.7 µM

## CCNCCN1CCOc2cc(NC(=N)c3cccs3)ccc21 [Compound 7, N-(4-(2-(ethylamino)ethyl)-3,4-dihydro-2H-benzo[b][1,4]oxazin-7-yl)thiophene-2-carboximidamide dihydrochloride]
[2]
  IC50: > 100 µM
[1]
  Selectivity eNOS/nNOS: 9.8
  IC50: 1.06 µM
[3]
  IC50: 10.4 µM

## CN(C)CCN1CCOc2ccc(NC(=N)c3cccs3)cc21 [Compound 9, N-(4-(2-(dimethylamino)ethyl)-3,4-dihydro-2H-benzo[b][1,4]oxazin-6-yl)-thiophene-2-carboximidamide]
[2]
  IC50: 7.25 µM
[1]
  Selectivity eNOS/nNOS: 182.5
  IC50: 0.2 µM
[3]
  IC50: 36.5 µM

## CNCCN1CCOc2ccc(NC(=N)c3cccs3)cc21 [Compound 10, N-(4-(2-(methylamino)ethyl)-3,4-dihydro-2H-benzo[b][1,4]oxazin-6-yl)-thiophene-2-carboximidamide dihydrochloride]
[2]
  IC50: 3.74 µM
[1]
  Selectivity eNOS/nNOS: 47.7
  IC50: 0.08 µM
[3]
  IC50: 3.82 µM

## N=C(Nc1ccc2c(c1)SCCN2CCN1CCCC1)c1cccs1 [Compound 11, N-(4-(2-(pyrrolidin-1-yl)ethyl)-3,4-dihydro-2H-benzo[b][1,4]thiazin-7-yl)thiophene-2-carboximidamide]
[2]
  IC50: 117 µM
[1]
  Selectivity eNOS/nNOS: 101.6
  IC50: 0.24 µM
[3]
  IC50: 24.4 µM

## CN(C)CCN1CCSc2cc(NC(=N)c3cccs3)ccc21 [Compound 12, N-(4-(2-(Dimethylamino)ethyl)-3,4-dihydro-2H-benzo[b][1,4]thiazin-7-yl)thiophene-2-carboximidamide dihydrochloride]
[2]
  IC50: 62.9 µM
[1]
  Selectivity eNOS/nNOS: 159.1
  IC50: 0.12 µM
[3]
  IC50: 19.1 µM

## CN1CCCC1CCN1CCSc2cc(NC(=N)c3cccs3)ccc21 (centres unmarked) [Compound 13, N-(4-(2-(1-methylpyrrolidin-2-yl)ethyl)-3,4-dihydro-2H-benzo[b][1,4]thiazin-7-yl)thiophene-2-carboximidamide]
[2]
  IC50: 33.1 µM
[1]
  Selectivity eNOS/nNOS: 52.2
  IC50: 0.19 µM
[3]
  IC50: 9.92 µM

## N=C(Nc1ccc2c(c1)SCCN2CCN1CCCCC1)c1cccs1 [Compound 14, N-(4-(2-(Piperidin-1-yl)ethyl)-3,4-dihydro-2H-benzo[b][1,4]thiazin-7-yl)thiophene-2-carboximidamide]
[2]
  IC50: 172 µM
[1]
  Selectivity eNOS/nNOS: 82.1
  IC50: 0.14 µM
[3]
  IC50: 11.5 µM

## CCN(CC)CCN1CCSc2cc(NC(=N)c3cccs3)ccc21 [Compound 15, N-(4-(2-(Diethylamino)ethyl)-3,4-dihydro-2H-benzo[b][1,4]thiazin-7-yl)thiophene-2-carboximidamide]
[2]
  IC50: 40.7 µM
[1]
  Selectivity eNOS/nNOS: 134
  IC50: 0.15 µM
[3]
  IC50: 20.1 µM

## N=C(Nc1ccc2c(c1)SCCN2CCNCCO)c1cccs1 [Compound 16, N-(4-(2-(2-hydroxyethylamino)ethyl)-3,4-dihydro-2H-benzo[b][1,4]thiazin-7-yl)thiophene-2-carboximidamide dihydrochloride]
[2]
  IC50: 58.7 µM
[1]
  Selectivity eNOS/nNOS: 205
  IC50: 0.034 µM
[3]
  IC50: 7 µM

## CN(CCN1CCSc2cc(NC(=N)c3cccs3)ccc21)CC(=O)O [Compound 17, 2-(methyl(2-(7-(thiophene-2-carboximidamido)-2H-benzo[b][1,4]thiazin-4(3H)-yl)ethyl)amino)acetic acid dihydrochloride]
[2]
  IC50: 241 µM
[1]
  Selectivity eNOS/nNOS: 9.3
  IC50: 1.16 µM
[3]
  IC50: 10.9 µM

## N=C(Nc1ccc2c(c1)SCCN2CCN1CCC[C@H]1C(=O)O)c1cccs1 [Compound 18, (S)-1-(2-(7-(Thiophene-2-carboximidamido)-2H-benzo[b][1,4]thiazin-4(3H)-yl)ethyl)pyrrolidine-2-carboxylic acid dihydrochloride]
[2]
  IC50: 341 µM
[1]
  Selectivity eNOS/nNOS: 19
  IC50: 0.66 µM
[3]
  IC50: 12.6 µM
